Laboratory results from paper PMC11604048, “Constrained TACC3 peptidomimetics for a non-canonical protein–protein interface elucidate allosteric communication in Aurora-A kinase” (Chemical Science, 2024).
Like-named read-outs stand apart in the source and are kept apart here. *1 amine or outer side, *2 acyl side, *3 side chain or, on linkers, in order; H or OH if unused. Where a SMILES comes first, the peptide text is derived from it. Bridges are numbered along the chain shown (N, C = ends). Maleimide(3,4-diyl) = O=C1NC(=O)C([*:2])=C1[*:1]

Target: T1, Aurora-A122-403-C290A/C393A (Homo sapiens, UniProt O14965, C290A/C393A)
T1 construct: Human Aurora-A kinase domain 122-403 wild-type or C290A/ C393A mutant; His tag (pET30TEV vector) (N, cleaved yes); made in house; host or cells: E. coli RIL, co-expressed with lambda phosphatase (Aurora-A); tracer by solid phase synthesis
T1 sequence (O14965 122-403 C290A/C393A): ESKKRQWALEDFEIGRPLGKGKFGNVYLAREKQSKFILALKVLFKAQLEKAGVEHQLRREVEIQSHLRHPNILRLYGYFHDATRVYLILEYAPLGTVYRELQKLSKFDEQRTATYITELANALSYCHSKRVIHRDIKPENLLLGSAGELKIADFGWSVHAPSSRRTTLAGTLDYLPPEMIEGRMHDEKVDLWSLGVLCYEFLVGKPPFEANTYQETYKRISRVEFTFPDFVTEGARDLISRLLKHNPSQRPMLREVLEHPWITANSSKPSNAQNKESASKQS
Experiment: Competition FA assay against FAM-Ahx-TACC3 522-536 tracer
Type: binding
Procedure: Once completed, the mixtures were transferred into SPPS fritted reaction vessels and washed with H2O (5X, 10 mL, 2 min), DMF (5X, 5mL, 2 min) and DCM (5X, 5 mL, 2 min). The clean resins were dried under vacuum and the cyclic peptides cleaved from the resin following the general procedures described in previous sections. After Et2O precipitation, the crude materials were freeze-dried and redissolved in H2O/MeCN/TFA 90/10/0.1% v/v for preparative HPLC purification.
All disulfide peptide variants (ox) were produced in situ from their free-thiol solid precursors. For this, 2 mg of the pure peptide materials were dissolved in aqueous DMSO 33% v/v to a 10 mM concentration and were left open to air oxidation at room temperature overnight. […]
the peptides were employed for FA competition assays and IC50 evaluation without further additional […]
Fluorescence anisotropy (FA) assays – General information.
All assays were performed using 384-well plates(Greiner Bio-one, UK). […]
produced as described previously.11 All samples were prepared in 25 mM Tris,150 mM NaCl, 5 mM MgCl2, pH= 7.5, unless otherwise stated, and tested in triplicate using an EnVisionTM 2103 MultiLabel plate reader (PerkinElmer; Waltham, MA, USA).The parameters were set as follows: Excitation wavelength = 480 nm (30 nm bandwidth) and emission wavelength = 535 nm (30 nm bandwidth). Measured data were processed and analysed as previously described.12 Specifically, the perpendicular intensity (P) and parallel intensity (S) were subtracted by the control values and used for calculations of intensity and anisotropy using the following Equations 1, 2, 3, 4, and 5:
I= (2PG) + S Eq. (SI − 5)
r = (S − PG) Eq. (SI − 6)
L = r − r௠௜௡ Eq. (SI − 7)
y = (k + x + [FL]) − ඥ(k + x + [FL]2 − 4 ∗ x ∗ [FL]) Eq. (SI − 8)
y = r + r௠௜௡ − r௠௔௫ Eq. (SI − 9)
Where I = total intensity; P = perpendicular intensity; S = parallel intensity; G = instrument factor; r = anisotropy; Lb = ligand bound fraction; λ = change in intensity between bound and unbound states which […]
FA direct binding assays. […]
starting from 700 μM, diluted over 24 points in a 1/2 regime using the FAM-Ahx-labeled peptides at a final fixed concentration of 50 nM per well.
FA competition assays were performed using the same plates and buffer as described above, with the initial […]
14 points in a 1/2 regime. […]
after 4 h of incubation to enable appropriate sample equilibration. To prevent sample oxidation, when sulfhydryl peptides were analyzed DTT was added to the buffer (5 mM). In competition mode, the average anisotropy and the average standard deviation of the values derived from equation SI-6 were calculated and fit to a sigmoidal logistic model (equation SI-9) using Origin 2021. When using peptides for which full […]
For consistency, all the data […]
indicating the corresponding SD. […]

[1] = as E1, Table S3 (mal): maleimide-constrained species, WT value is an individual replica control assay, mean ± SD, n = 3, SD, read-out: IC50 (mal)

CC(=O)N[C@@H](CCC(=O)O)C(=O)N[C@@H](CCC(=O)O)C(=O)N[C@@H](CO)C(=O)N[C@@H](Cc1ccccc1)C(=O)N[C@@H](CCCNC(=N)N)C(=O)N[C@@H](CC(=O)O)C(=O)N1CCC[C@H]1C(=O)N[C@@H](C)C(=O)N[C@@H](CCC(=O)O)C(=O)N[C@H](C(=O)N[C@H]1CSC2=C(SC[C@@H](C(=O)N[C@@H](C)C(N)=O)NC(=O)[C@H]([C@@H](C)O)NC(=O)CNC1=O)C(=O)NC2=O)C(C)C [TACC3 522-536 L532C/G535C (mal)] (Ac-EESFRDPAEVCGTCA-NH2; linker 11-14 via Maleimide(3,4-diyl))
IC50 [1]: 480 ± 60 µM

CC(=O)N[C@@H](CCC(=O)O)C(=O)N[C@@H](CS)C(=O)N[C@@H](CO)C(=O)N[C@@H](Cc1ccccc1)C(=O)N[C@@H](CS)C(=O)N[C@@H](CC(=O)O)C(=O)N1CCC[C@H]1C(=O)N[C@@H](C)C(=O)N[C@@H](CCC(=O)O)C(=O)N[C@H](C(=O)N[C@@H](CC(C)C)C(=O)NCC(=O)N[C@H](C(=O)NCC(=O)N[C@@H](C)C(N)=O)[C@@H](C)O)C(C)C [TACC3 522-536 E523C/R526C (red)] (Ac-ECSFCDPAEVLGTGA-NH2)
IC50 (as E1, free-sulfhydryl (reduced) species, DTT 5 mM in buffer, WT control (+DTT), mean ± SD, n = 3, read-out: IC50 (red)): ≥ 500 µM

CC(=O)N[C@@H](CCC(=O)O)C(=O)N[C@@H](CCC(=O)O)C(=O)N[C@@H](CO)C(=O)N[C@H]1CSC2=C(SC[C@@H](C(=O)N[C@@H](C)C(=O)N[C@@H](CCC(=O)O)C(=O)N[C@H](C(=O)N[C@@H](CC(C)C)C(=O)NCC(=O)N[C@H](C(=O)NCC(=O)N[C@@H](C)C(N)=O)[C@@H](C)O)C(C)C)NC(=O)[C@H](CC(=O)O)NC(=O)[C@H](CCCNC(=N)N)NC1=O)C(=O)NC2=O [TACC3 522-536 F525C/P528C (mal)] (Ac-EESCRDCAEVLGTGA-NH2; linker 4-7 via Maleimide(3,4-diyl))
IC50 [1]: 244 ± 28 µM

CC(=O)N[C@@H](CCC(=O)O)C(=O)N[C@@H](CCC(=O)O)C(=O)N[C@@H](CO)C(=O)N[C@@H](Cc1ccc(I)cc1)C(=O)N[C@@H](CCCNC(=N)N)C(=O)N[C@@H](CC(=O)O)C(=O)N1CCC[C@H]1C(=O)N[C@@H](C)C(=O)N[C@@H](CCC(=O)O)C(=O)N[C@H](C(=O)N[C@@H](CC(C)C)C(=O)NCC(=O)N[C@H](C(=O)NCC(=O)N[C@@H](C)C(N)=O)[C@@H](C)O)C(C)C [TACC3 522-536_(4-I)525F]
IC50 (SD, read-out: IC50): 34 ± 3 µM

CC(=O)N[C@@H](CCC(=O)O)C(=O)N[C@@H](CCC(=O)O)C(=O)N[C@@H](CO)C(=O)N[C@@H](Cc1ccccc1)C(=O)N[C@@H](CCCNC(=N)N)C(=O)N[C@@H](CC(=O)O)C(=O)N1CCC[C@H]1C(=O)N[C@@H](C)C(=O)N[C@H]1CSSC[C@@H](C(=O)N[C@H](C(=O)NCC(=O)N[C@@H](C)C(N)=O)[C@@H](C)O)NC(=O)[C@H](CC(C)C)NC(=O)[C@H](C(C)C)NC1=O [TACC3 522-536 E530C/G533C (ox)] (Ac-EESFRDPACVLCTGA-NH2; disulfide 9-12)
IC50 (as E1, oxidised (disulfide) species made in situ from 10 mM stock in aqueous DMSO 33% v/v, air, overnight, WT control (+DMSO) given the same DMSO incubation, mean ± SD, n = 3, read-out: IC50 (ox)): ≥ 500 µM

CC(=O)N[C@@H](CCC(=O)O)C(=O)N[C@@H](CCC(=O)O)C(=O)N[C@@H](CO)C(=O)N[C@@H](Cc1ccccc1)C(=O)N[C@@H](CCCNC(=N)N)C(=O)N[C@@H](CC(=O)O)C(=O)N1CCC[C@H]1C(=O)N[C@@H](C)C(=O)N[C@@H](CCC(=O)O)C(=O)N[C@H]1CSC2=C(SC[C@@H](C(=O)NCC(=O)N[C@@H](C)C(N)=O)NC(=O)CNC(=O)[C@H](CC(C)C)NC1=O)C(=O)NC2=O [TACC3 522-536 V531C/T534C (mal)] (Ac-EESFRDPAECLGCGA-NH2; linker 10-13 via Maleimide(3,4-diyl))
IC50 [1]: 412 ± 73 µM

CC(=O)N[C@@H](CCC(=O)O)C(=O)N[C@@H](CCC(=O)O)C(=O)N[C@@H](CS)C(=O)N[C@@H](Cc1ccccc1)C(=O)N[C@@H](CCCNC(=N)N)C(=O)N[C@@H](CS)C(=O)N1CCC[C@H]1C(=O)N[C@@H](C)C(=O)N[C@@H](CCC(=O)O)C(=O)N[C@H](C(=O)N[C@@H](CC(C)C)C(=O)NCC(=O)N[C@H](C(=O)NCC(=O)N[C@@H](C)C(N)=O)[C@@H](C)O)C(C)C [TACC3 522-536 S524C/D527C (red)] (Ac-EECFRCPAEVLGTGA-NH2)
IC50 (as E1, free-sulfhydryl (reduced) species, DTT 5 mM in buffer, WT control (+DTT), mean ± SD, n = 3, SD, read-out: IC50 (red)): 309 ± 38 µM
